Laboratory results reported in patent US20230226198A1, “Artemisinin Derivatives” (DA ZEN THERANOSTICS, INC., priority 2019, published 2023).
Where two headings read alike, the source gives them in different places.

What was measured:
[1] = tested on: C4-2B MDVR cells; assay: Seahorse XF mitochondrial function (OCR/ECAR); type: cell-based, human; settings: 5 uM
Method: Example 5 C: To determine mitochondrial function of cancer cells (here C4-2B MDVR), the cells are treated with vehicle, DZ (5 uM), DHA (5 uM), and DZ-003 (5 uM) over 12 hours, and the oxygen consumption rate (OCR) from respiration and extracellular acidification rate (ECAR) from glycolysis of the live cells is determined in a metabolic chamber in a 24-well plate format using a Seahorse XF analyzer (Seahorse XFe24, Agilent, Calif.). Reagents (drugs/controls) are added to the wells just before start of the recording at time 0, and the effect of the drugs on the basal mitochondrial function is recorded by the analyzer for about 12 hours (720 minutes). All reagents used are Agilent reagents. Cells are seeded and cultured in Seahorse XF RPMI Medium, pH 7.4. The seeding rate is 8×10^5 for the cells to reach about 90% confluency within about 24 hours when the analysis is started. The protocol is essentially performed as per the standard protocol of the manufacturer, removing the medium, washing the cells once with XF Real-Time ATP Rate Assay Medium, then starting the measurement as per the instrument's pre-programming and subsequent real-time measurements of OCAR/ECAR. Preliminary experiments indicate that the THAD as described herein may have an increased effect compared to DZ3a.

[2] = tested on: Caki-1 cells (human clear cell renal cell carcinoma cells); assay: MTT cell viability / IC50 assay, Caki-1; type: cell-based
Method: Cell culture: In the following examples, unless otherwise specified, all cell lines are purchased from American Type Culture Collection and cultured in American Type Culture Collection (ATCC)-recommended media, with fetal bovine serum (FBS) to a final concentration of 10% and 1× penicillin/streptomycin at 37° C. with 5% CO2 in a cell culture incubator, unless otherwise specified. Unless otherwise specified, culture is 2D. Where culture is 3D, low attachment plates are used, with the same media. C4-2B (ATCC® CRL-3315™, human prostate cancer cells of epithelial morphology) parental cell line and drug-resistant cells derived therefrom) are cultured in RPMI-1640 with 10% FBS. MDVR cells (an Enzalutamide-resistant variety of C4-2B prostate cancer cells formed as described below) are cultured as indicated for the parental C4-2B cells. Caki-1 cells (human clear cell renal cell carcinoma cells) are cultured in ATCC-formulated McCoy's 5a Medium Modified (ATCC Catalog No. 30-2007) with 10% FBS. PC3 cells (ATCC® CRL-1435™, a human prostate cancer cell line of epithelial morphology initiated from a bone metastasis of a grade IV prostatic adenocarcinoma) are cultured in F-12K with 10% FBS. 22RV1 Prostate Cancer (PC) cells (ATCC® CRL-2505™, a human prostate carcinoma cell line of epithelial morphology) are cultured in RPMI-1640 with 10% FBS. DU145 cells (ATCC® HTB-81™, a human cell line derived from a prostate-originating brain metastase, not detectably hormone sensitive, not expressing prostate antigen; forms adenocarcinoma grade II in nude mice) are cultured in ATCC-formulated Eagle's Minimum Essential Medium (EMEM, Catalog No. 30-2003). H446 cells (ATCC® HTB-171™, a human small cell carcinoma SC lung cancer (SCLC) cell line derived from a metastatic site) are cultured in RPMI-1640 with 10% FBS. H358 cells (ATCC® CRL-5807™, a human non-small cell lung cancer (NSCLC) cell line that expresses protein and RNA of SP-A, the major lung surfactant associated protein, and produces tumors in athymic nude mice) are cultured in RPMI-1640 Medium with 10% FBS. BxPC3 cells (ATCC® CRL-1687™, an adenocarcinoma-derived pancreatic cancer cell line that expresses pancreas cancer specific antigen and carcinoembryonic antigen and forms tumors in nude mice) are cultured in RPMI-1640 with 10% FBS.
Example 1: A cell assay is performed exposing cells cultured as described above to various drugs indicated below for 24 hours unless otherwise indicated. Each of the cell lines is treated either with a THAD (e.g. DZ-DHA-ether, MI-148-bis-DHA), or for comparison, with the DHA mono-ester “DZ-DHA”; alternatively/additionally, DZ1 and/or unconjugated DHA may serve as comparants. For each cell line, the IC50 is determined for each drug in concentrations from 0 to 100 μM. […] In the controls (not shown in the figures), the cells are exposed to DMSO (vehicle) for a final concentration that equals the highest concentration of the drug tested, to a maximum concentration less than 0.1% v/v. 4 hours before culture end/SDS addition, 10 μL MTT (3-(4,5-Dimethyl-2-thiazolyl)-2,5-diphenyl-2H-tetrazolium bromide, Sigma-Aldrich) is added to wells containing the cells. At the end of culture, 100 μl 10% SDS is added and then the plate containing the cells is placed in a 37° C. cell culture incubator for 8 hours. The absorbance density of the supernatant is read on a 96-well microplate reader at wavelength 595 nm. The results of Caki-1 and MDRV are indicated in the table below along with preliminary results for further cancer cell lines (including, e.g., C4-2B, Abi-R, PC3, 22Rv1, DU145, H358, H446, BxPC3), and the corresponding curves are shown in FIG. 2A (Caki-1) and FIG. 2B (MDVR).

[3] = tested on: pATM, γH2AX, cytochrome c; assay: Western blot analysis of DNA damage and mitochondrial markers; type: cell-based
Method: The western blot analysis is performed as follows: Protein lysates (25 ug/sample) are separated by electrophoresis into the SDS-PAGE, which is then transferred to a nitrocellulose membrane for immunoblotting analysis. The protein membranes are blocked with 5% non-fat milk in PBS at room temperature (RT) for 1 h, followed by incubation with primary antibodies against proteins of interests diluted in 2% BSA in Phosphate Buffered Saline with Tween-20 (PBST) at 1:500 or 1:1000 at 4° C. overnight. The membranes are washed with PBST three times at 5 min for each wash on an orbital shaker, and then incubated with secondary antibodies against the species of the primary antibodies (i.e. anti-mouse or anti-rabbit) diluted in 5% non-fat milk in PBST for 1 h at RT with shaking. After the secondary antibody, the membranes are washed three times for 5 min each, and subjected to chemiluminescence imaging with ECL substrates (e.g. Pierce ECL Plus™, Thermo Fisher Scientific), to detect the protein bands of interest. Preliminary experiments indicate that the THAD as described herein may have an increased effect compared to DZ3a.

**Q.** How did the “time at which lowering of OCR starts” value [1] turn out when C[C@@H]1CC[C@H]2[C@@H](C)C(OC(=O)CCCCCN3/C(=C/C=C4\CCCC(/C=C/C5=[N+](CCCCS(=O)(=O)[O-])c6ccccc6C5(C)C)=C4Cl)C(C)(C)c4ccccc43)O[C@@H]3OC4(C)CC[C@@H]1[C@]32OO4 (stereo in doubt) [DZ3a] was run?
**A.** The value was ≤ 250 min.

**Q.** What about the “time until which OCR continues to lower before sustained lowered OCR” value [1] of the same compound?
**A.** Its value is “about 500 minutes”.

**Q.** And the “lowering of OCR (in words)” value ([1]; over 12 hours)?
**A.** The value was “can greatly lower the mitochondrial oxygen consumption rate”.

**Q.** What about the “mitochondrial oxygen consumption rate (OCR) after treatment” value ([1]; over 12 hours, from about 700-800 pmol/min) of the same compound?
**A.** The value was “less than 300 pmol/min”.

**Q.** And the IC50 ([2]; Caki-1, 24 hours, relative IC50, read-out: IC50)?
**A.** Its IC50 is 12.3 µM.

**Q.** And the IC50 ([2]; Caki-1, unit inferred, read-out: IC50 (FIG. 2A description))?
**A.** Its IC50 is > 12 µM.

**Q.** What about the “DNA damage (levels of pATM and γH2AX)” value [3] of the same compound?
**A.** The value was “induces DNA damage”.

**Q.** And the “depletion of mitochondria (levels of cytochrome c)” value [3]?
**A.** Its value is “depletes mitochondria”.
